Results: publication PMC11864979, “First-in-class ultralong-target-residence-time p38α inhibitors as a mitosis-targeted therapy for colorectal cancer” (Nature Cancer, 2025)
Read-outs that look alike come from different tables or passages of the source.

Experiments:
Assay in all cases: selectivity profiling in a panel of 340 wild-type kinases (Reaction Biology Europe)
Format in all cases: binding
340 wild-type kinases [1] = target: T1, 340 wild-type kinases (Homo sapiens, UniProt Q13131)
T1 construct: purchased Reaction Biology Europe

340 wild-type kinases [2] = target: T2, 340 wild-type kinases (Homo sapiens, UniProt Q8N568)
T2 construct: purchased Reaction Biology Europe

340 wild-type kinases [3] = target: T3, 340 wild-type kinases (Homo sapiens, UniProt P68400)
T3 construct: purchased Reaction Biology Europe

340 wild-type kinases [4] = target: T4, 340 wild-type kinases (Homo sapiens, UniProt P23458)
T4 construct: purchased Reaction Biology Europe

340 wild-type kinases [5] = target: T5, 340 wild-type kinases (Homo sapiens, UniProt P07333)
T5 construct: purchased Reaction Biology Europe

340 wild-type kinases [6] = target: T6, 340 wild-type kinases (Homo sapiens, UniProt P43403)
T6 construct: purchased Reaction Biology Europe
T6 sequence (P43403 1-619): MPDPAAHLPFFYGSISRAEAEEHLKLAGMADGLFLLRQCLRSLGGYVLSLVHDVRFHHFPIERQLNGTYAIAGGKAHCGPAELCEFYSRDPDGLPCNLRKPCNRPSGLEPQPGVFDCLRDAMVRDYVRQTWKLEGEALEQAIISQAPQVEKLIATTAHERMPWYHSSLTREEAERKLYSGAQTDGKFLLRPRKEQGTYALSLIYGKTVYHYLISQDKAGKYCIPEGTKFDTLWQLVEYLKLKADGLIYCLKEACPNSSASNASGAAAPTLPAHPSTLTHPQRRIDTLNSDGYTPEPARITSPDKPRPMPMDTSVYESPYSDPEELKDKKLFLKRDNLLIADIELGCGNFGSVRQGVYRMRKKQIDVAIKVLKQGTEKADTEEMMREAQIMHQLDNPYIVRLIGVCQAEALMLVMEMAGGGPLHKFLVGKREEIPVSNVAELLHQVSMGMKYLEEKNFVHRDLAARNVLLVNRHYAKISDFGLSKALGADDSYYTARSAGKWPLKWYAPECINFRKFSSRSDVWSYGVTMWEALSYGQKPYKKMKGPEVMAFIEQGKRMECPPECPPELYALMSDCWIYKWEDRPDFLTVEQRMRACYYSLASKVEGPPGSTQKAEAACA

340 wild-type kinases [7] = target: T7, 340 wild-type kinases (Homo sapiens, UniProt Q9UKI8)
T7 construct: purchased Reaction Biology Europe
T7 sequence (Q9UKI8 1-766): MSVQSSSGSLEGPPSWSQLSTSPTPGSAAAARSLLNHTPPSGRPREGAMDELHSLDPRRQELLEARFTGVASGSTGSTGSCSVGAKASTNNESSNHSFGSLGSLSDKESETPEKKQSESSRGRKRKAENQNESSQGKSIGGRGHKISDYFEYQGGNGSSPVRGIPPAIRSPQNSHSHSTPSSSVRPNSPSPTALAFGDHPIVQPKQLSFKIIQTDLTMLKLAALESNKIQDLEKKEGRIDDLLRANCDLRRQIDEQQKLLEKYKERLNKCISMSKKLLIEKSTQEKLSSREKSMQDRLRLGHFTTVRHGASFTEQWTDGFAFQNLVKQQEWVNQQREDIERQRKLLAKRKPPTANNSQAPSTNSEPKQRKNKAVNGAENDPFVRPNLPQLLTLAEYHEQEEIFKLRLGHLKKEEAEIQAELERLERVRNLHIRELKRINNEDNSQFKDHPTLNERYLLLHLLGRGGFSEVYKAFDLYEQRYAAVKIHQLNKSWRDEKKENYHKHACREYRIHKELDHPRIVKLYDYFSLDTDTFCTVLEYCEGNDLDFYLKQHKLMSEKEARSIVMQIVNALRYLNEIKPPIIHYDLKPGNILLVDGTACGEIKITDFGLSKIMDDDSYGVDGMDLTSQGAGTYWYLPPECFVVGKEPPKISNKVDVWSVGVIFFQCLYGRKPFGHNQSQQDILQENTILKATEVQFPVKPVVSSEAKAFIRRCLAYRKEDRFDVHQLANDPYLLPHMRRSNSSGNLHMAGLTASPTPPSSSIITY

340 wild-type kinases [8] = target: T8, 340 wild-type kinases (Homo sapiens, UniProt Q9Y243)
T8 construct: purchased Reaction Biology Europe

340 wild-type kinases [9] = target: T9, 340 wild-type kinases (Homo sapiens, UniProt Q00537)
T9 construct: purchased Reaction Biology Europe

340 wild-type kinases [10] = target: T10, 340 wild-type kinases (Homo sapiens, UniProt Q9Y4K4)
T10 construct: purchased Reaction Biology Europe

340 wild-type kinases [11] = target: T11, 340 wild-type kinases (Homo sapiens, UniProt Q14680)
T11 construct: purchased Reaction Biology Europe

340 wild-type kinases [12] = target: T12, 340 wild-type kinases (Homo sapiens, UniProt P49761)
T12 construct: purchased Reaction Biology Europe

T5 sequence (P07333 20-972): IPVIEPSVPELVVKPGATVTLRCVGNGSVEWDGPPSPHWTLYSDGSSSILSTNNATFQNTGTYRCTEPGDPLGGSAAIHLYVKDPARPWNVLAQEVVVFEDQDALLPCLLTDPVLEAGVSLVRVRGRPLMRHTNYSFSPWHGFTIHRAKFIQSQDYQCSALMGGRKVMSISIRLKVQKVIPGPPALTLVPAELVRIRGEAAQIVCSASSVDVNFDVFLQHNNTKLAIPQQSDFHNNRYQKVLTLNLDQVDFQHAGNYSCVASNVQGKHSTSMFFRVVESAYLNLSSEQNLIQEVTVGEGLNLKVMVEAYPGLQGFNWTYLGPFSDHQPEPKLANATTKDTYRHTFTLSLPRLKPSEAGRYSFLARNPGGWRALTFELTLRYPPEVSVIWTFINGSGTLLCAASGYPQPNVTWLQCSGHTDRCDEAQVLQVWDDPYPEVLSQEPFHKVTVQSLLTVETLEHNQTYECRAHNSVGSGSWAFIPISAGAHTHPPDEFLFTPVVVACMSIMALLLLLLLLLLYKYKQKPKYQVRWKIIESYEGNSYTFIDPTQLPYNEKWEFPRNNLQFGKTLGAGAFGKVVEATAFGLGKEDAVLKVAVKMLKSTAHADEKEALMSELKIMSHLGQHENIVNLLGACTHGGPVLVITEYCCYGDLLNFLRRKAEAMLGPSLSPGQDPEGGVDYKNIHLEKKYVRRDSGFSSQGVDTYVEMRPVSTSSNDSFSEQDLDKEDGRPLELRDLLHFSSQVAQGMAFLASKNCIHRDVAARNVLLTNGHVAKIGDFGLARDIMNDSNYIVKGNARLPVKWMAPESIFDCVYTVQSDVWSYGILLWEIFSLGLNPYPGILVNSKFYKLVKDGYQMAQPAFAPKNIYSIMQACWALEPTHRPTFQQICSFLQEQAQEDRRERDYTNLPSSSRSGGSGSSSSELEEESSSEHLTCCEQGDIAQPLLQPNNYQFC
T8 sequence (Q9Y243 whole entry): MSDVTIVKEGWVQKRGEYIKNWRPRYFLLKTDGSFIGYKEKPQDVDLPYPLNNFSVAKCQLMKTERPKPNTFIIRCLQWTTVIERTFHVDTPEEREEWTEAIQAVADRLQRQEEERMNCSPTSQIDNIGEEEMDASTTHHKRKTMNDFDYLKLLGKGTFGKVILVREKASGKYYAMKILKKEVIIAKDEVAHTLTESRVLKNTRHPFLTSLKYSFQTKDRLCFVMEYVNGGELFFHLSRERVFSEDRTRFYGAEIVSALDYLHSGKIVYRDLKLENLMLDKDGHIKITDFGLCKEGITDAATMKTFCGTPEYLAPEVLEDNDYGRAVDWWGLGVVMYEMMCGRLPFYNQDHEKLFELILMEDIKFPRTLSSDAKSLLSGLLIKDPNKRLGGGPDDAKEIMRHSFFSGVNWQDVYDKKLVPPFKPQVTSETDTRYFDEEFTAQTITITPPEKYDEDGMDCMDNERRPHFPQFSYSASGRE
T4 sequence (P23458 whole entry): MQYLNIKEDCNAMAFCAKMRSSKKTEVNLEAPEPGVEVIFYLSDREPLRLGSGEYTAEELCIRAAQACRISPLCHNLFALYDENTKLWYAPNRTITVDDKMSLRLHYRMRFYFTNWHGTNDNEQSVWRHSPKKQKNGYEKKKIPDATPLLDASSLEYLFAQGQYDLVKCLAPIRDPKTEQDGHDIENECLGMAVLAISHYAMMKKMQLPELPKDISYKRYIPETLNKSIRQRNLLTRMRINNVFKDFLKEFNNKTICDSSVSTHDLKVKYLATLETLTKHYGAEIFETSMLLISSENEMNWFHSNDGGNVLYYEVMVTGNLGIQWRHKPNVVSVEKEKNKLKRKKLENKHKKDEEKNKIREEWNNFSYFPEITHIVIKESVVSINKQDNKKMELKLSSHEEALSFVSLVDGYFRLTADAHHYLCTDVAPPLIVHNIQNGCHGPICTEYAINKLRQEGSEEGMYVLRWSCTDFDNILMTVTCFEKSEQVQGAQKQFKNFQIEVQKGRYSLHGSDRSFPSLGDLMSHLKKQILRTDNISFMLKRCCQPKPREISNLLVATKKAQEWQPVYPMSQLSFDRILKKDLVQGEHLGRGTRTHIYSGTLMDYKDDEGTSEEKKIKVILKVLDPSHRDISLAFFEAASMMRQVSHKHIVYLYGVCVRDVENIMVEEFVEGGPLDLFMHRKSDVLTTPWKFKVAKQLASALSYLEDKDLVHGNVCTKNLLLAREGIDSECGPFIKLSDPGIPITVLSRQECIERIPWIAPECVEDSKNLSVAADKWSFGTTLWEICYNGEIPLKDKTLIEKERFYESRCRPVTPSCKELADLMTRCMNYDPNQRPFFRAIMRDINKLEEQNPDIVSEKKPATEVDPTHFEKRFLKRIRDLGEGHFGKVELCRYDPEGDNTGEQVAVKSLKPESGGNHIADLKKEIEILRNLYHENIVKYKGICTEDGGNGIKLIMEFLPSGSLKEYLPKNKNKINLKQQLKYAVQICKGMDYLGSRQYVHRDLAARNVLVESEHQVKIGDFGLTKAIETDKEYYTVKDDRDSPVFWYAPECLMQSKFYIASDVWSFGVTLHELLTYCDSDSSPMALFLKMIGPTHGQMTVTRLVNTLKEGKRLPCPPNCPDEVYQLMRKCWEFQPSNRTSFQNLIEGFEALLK
T2 sequence (Q8N568 whole entry): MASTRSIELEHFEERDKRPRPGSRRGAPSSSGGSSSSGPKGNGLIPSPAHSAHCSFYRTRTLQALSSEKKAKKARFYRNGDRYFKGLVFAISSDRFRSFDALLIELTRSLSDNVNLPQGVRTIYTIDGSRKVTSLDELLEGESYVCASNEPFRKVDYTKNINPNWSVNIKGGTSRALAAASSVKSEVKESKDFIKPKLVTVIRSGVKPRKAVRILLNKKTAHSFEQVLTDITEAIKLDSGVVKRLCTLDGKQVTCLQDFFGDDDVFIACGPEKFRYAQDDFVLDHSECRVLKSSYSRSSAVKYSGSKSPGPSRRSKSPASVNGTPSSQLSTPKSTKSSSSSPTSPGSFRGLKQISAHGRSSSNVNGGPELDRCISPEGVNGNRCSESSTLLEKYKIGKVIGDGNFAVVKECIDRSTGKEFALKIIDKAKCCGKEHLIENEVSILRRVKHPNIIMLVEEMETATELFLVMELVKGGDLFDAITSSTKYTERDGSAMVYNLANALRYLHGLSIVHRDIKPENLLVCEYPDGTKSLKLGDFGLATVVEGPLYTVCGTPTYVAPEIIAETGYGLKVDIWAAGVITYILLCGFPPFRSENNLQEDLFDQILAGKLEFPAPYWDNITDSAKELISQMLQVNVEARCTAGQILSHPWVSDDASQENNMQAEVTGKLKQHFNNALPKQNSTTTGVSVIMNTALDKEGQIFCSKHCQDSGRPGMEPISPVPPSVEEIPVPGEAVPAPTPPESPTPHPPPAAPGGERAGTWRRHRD
T1 sequence (Q13131 whole entry): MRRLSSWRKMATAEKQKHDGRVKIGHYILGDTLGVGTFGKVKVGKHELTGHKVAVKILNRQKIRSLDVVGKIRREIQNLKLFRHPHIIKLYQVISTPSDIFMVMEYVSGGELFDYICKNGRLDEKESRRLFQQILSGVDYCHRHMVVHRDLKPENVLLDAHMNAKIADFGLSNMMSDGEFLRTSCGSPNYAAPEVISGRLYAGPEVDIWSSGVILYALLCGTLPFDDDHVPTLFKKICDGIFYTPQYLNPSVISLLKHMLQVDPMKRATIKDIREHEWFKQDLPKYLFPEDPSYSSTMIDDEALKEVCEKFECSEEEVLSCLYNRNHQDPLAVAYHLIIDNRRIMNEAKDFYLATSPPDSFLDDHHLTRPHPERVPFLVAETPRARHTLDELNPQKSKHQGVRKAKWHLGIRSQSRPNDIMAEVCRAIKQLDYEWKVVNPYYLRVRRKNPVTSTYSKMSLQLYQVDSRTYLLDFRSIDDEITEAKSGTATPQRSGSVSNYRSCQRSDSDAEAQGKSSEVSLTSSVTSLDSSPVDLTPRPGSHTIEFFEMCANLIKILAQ
T3 sequence (P68400 whole entry): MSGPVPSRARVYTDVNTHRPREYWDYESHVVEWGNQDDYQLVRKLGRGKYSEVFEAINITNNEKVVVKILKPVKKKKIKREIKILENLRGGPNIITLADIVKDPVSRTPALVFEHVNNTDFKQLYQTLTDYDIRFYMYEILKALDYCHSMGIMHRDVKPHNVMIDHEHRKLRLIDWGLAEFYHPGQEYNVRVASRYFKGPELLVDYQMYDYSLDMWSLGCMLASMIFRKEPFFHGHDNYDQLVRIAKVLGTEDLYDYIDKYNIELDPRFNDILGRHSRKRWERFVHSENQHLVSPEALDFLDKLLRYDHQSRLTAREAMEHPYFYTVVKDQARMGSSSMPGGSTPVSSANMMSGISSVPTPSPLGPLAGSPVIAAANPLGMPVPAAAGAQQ
T11 sequence (Q14680 whole entry): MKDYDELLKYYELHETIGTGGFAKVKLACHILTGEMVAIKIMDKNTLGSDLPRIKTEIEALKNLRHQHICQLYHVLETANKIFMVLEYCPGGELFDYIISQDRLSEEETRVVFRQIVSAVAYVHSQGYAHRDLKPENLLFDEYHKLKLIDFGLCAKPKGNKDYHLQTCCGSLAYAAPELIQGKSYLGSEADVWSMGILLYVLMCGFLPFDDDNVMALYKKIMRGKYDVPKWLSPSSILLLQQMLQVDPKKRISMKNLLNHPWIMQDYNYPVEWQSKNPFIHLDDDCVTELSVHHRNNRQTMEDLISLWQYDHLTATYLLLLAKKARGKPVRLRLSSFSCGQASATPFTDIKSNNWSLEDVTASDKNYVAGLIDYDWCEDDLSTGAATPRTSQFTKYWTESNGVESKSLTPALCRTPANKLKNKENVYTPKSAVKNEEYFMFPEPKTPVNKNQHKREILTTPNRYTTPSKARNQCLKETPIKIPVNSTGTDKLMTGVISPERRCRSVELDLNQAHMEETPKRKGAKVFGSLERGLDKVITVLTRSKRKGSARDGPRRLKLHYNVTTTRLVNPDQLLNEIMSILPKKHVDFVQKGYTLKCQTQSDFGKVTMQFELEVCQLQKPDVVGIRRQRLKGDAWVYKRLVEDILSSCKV

`CNC(=O)c1ccc2c(c1)C(=O)c1ccc(Nc3ccc(F)c(NC(=O)C4CC4)c3)cc1CC2` [Compound 2015] was tested, and the remaining activity at 0.2 µM (340 wild-type kinases [1]; 0.2 µM 2015, read-out: AMPKalpha1 residual activity) was 91.7%, the remaining activity at 1 µM (340 wild-type kinases [1]; 1 µM 2015, read-out: AMPKalpha1 residual activity) was 101% and the remaining activity at 0.2 µM (340 wild-type kinases [1]; AMPKalpha1, 0.2 µM, read-out: residual activity) was 91.8%. The remaining activity at 1 µM (340 wild-type kinases [1]; AMPKalpha1, 1 µM, read-out: residual activity) was 101%, the remaining activity at 0.2 µM (340 wild-type kinases [2]; 0.2 µM 2015, read-out: DCAMKL2 residual activity) was 102% and the remaining activity at 1 µM (340 wild-type kinases [2]; 1 µM 2015, read-out: DCAMKL2 residual activity) was 86.3%. It also gave a remaining activity at 0.2 µM (340 wild-type kinases [2]; DCAMKL2, 0.2 µM, read-out: residual activity) of 102%, a remaining activity at 1 µM (340 wild-type kinases [2]; DCAMKL2, 1 µM, read-out: residual activity) of 86.3% and a remaining activity at 0.2 µM (340 wild-type kinases [3]; 0.2 µM 2015, read-out: CK2alpha1 residual activity) of 98.8%. For the same molecule, the remaining activity at 1 µM (340 wild-type kinases [3]; 1 µM 2015, read-out: CK2alpha1 residual activity) was 95.8%, the remaining activity at 0.2 µM (340 wild-type kinases [3]; CK2alpha1, 0.2 µM, read-out: residual activity) was 98.8% and the remaining activity at 1 µM (340 wild-type kinases [3]; CK2alpha1, 1 µM, read-out: residual activity) was 95.8%. The remaining activity at 0.2 µM (340 wild-type kinases [4]; 0.2 µM 2015, read-out: JAK1 residual activity) was 86.7%, the remaining activity at 1 µM (340 wild-type kinases [4]; 1 µM 2015, read-out: JAK1 residual activity) was 99.8% and the remaining activity at 0.2 µM (340 wild-type kinases [4]; JAK1, 0.2 µM, read-out: residual activity) was 86.7%. The remaining activity at 1 µM (340 wild-type kinases [4]; JAK1, 1 µM, read-out: residual activity) was 99.8%, the remaining activity at 0.2 µM (340 wild-type kinases [5]; 0.2 µM 2015, read-out: CSF1R residual activity) was 97.2% and the remaining activity at 1 µM (340 wild-type kinases [5]; 1 µM 2015, read-out: CSF1R residual activity) was 84%. It also gave a remaining activity at 0.2 µM (340 wild-type kinases [5]; CSF1R, 0.2 µM, read-out: residual activity) of 97.2%, a remaining activity at 1 µM (340 wild-type kinases [5]; CSF1R, 1 µM, read-out: residual activity) of 84% and a remaining activity at 0.2 µM (340 wild-type kinases [6]; 0.2 µM 2015, read-out: ZAP70 residual activity) of 122%. For the same molecule, the remaining activity at 1 µM (340 wild-type kinases [6]; 1 µM 2015, read-out: ZAP70 residual activity) was 100%, the remaining activity at 0.2 µM (340 wild-type kinases [6]; ZAP70, 0.2 µM, read-out: residual activity) was 122% and the remaining activity at 1 µM (340 wild-type kinases [6]; ZAP70, 1 µM, read-out: residual activity) was 100%. The remaining activity at 0.2 µM (340 wild-type kinases [7]; 0.2 µM 2015, read-out: TLK1 residual activity) was 122%, the remaining activity at 1 µM (340 wild-type kinases [7]; 1 µM 2015, read-out: TLK1 residual activity) was 105% and the remaining activity at 0.2 µM (340 wild-type kinases [7]; TLK1, 0.2 µM, read-out: residual activity) was 122%. For the same molecule, the remaining activity at 1 µM (340 wild-type kinases [7]; TLK1, 1 µM, read-out: residual activity) was 105%, the remaining activity at 0.2 µM (340 wild-type kinases [8]; 0.2 µM 2015, read-out: AKT3 residual activity) was 96% and the remaining activity at 1 µM (340 wild-type kinases [8]; 1 µM 2015, read-out: AKT3 residual activity) was 89.5%. For the same molecule, the remaining activity at 0.2 µM (340 wild-type kinases [8]; AKT3, 0.2 µM, read-out: residual activity) was 96%, the remaining activity at 1 µM (340 wild-type kinases [8]; AKT3, 1 µM, read-out: residual activity) was 89.5% and the remaining activity at 0.2 µM (340 wild-type kinases [9]; 0.2 µM 2015, read-out: CDK17/p35NCK residual activity) was 94.8%. The remaining activity at 1 µM (340 wild-type kinases [9]; 1 µM 2015, read-out: CDK17/p35NCK residual activity) was 93.6%, the remaining activity at 1 µM (340 wild-type kinases [9]; CDK17/p35NCK, 1 µM, read-out: residual activity) was 93.6% and the remaining activity at 0.2 µM (340 wild-type kinases [10]; 0.2 µM 2015, read-out: MAP4K5 residual activity) was 101%. The remaining activity at 1 µM (340 wild-type kinases [10]; 1 µM 2015, read-out: MAP4K5 residual activity) was 91.4%, the remaining activity at 0.2 µM (340 wild-type kinases [10]; MAP4K5, 0.2 µM, read-out: residual activity) was 101% and the remaining activity at 1 µM (340 wild-type kinases [10]; MAP4K5, 1 µM, read-out: residual activity) was 91.4%. The remaining activity at 0.2 µM (340 wild-type kinases [11]; 0.2 µM 2015, read-out: MELK residual activity) was 94.5%, the remaining activity at 1 µM (340 wild-type kinases [11]; 1 µM 2015, read-out: MELK residual activity) was 91% and the remaining activity at 0.2 µM (340 wild-type kinases [11]; MELK, 0.2 µM, read-out: residual activity) was 94.5%. The remaining activity at 1 µM (340 wild-type kinases [11]; MELK, 1 µM, read-out: residual activity) was 91%, the remaining activity at 0.2 µM (340 wild-type kinases [12]; 0.2 µM 2015, read-out: CLK3 residual activity) was 138% and the remaining activity at 1 µM (340 wild-type kinases [12]; 1 µM 2015, read-out: CLK3 residual activity) was 133%. For the same molecule, the remaining activity at 0.2 µM (340 wild-type kinases [12]; CLK3, 0.2 µM, read-out: residual activity) was 138% and the remaining activity at 1 µM (340 wild-type kinases [12]; CLK3, 1 µM, read-out: residual activity) was 133%.
